Results taken from patent EP4494641A1, “SITAGLIPTIN IS A MALT1 INHIBITOR” (Cloudpharm Private Company, priority 2023, dated 2025).
Like-named read-outs stand apart in the source and are kept apart here.

How the values were obtained:
[1] = molecular target: T1, MALT1 (Homo sapiens, UniProt Q9UDY8); assay: EC50 determination for MALT1 inhibition (Trypan blue dye-exclusion in cell lines); assay type: cell-based
T1 construct: endogenous in cells
T1 sequence (Q9UDY8 1-824): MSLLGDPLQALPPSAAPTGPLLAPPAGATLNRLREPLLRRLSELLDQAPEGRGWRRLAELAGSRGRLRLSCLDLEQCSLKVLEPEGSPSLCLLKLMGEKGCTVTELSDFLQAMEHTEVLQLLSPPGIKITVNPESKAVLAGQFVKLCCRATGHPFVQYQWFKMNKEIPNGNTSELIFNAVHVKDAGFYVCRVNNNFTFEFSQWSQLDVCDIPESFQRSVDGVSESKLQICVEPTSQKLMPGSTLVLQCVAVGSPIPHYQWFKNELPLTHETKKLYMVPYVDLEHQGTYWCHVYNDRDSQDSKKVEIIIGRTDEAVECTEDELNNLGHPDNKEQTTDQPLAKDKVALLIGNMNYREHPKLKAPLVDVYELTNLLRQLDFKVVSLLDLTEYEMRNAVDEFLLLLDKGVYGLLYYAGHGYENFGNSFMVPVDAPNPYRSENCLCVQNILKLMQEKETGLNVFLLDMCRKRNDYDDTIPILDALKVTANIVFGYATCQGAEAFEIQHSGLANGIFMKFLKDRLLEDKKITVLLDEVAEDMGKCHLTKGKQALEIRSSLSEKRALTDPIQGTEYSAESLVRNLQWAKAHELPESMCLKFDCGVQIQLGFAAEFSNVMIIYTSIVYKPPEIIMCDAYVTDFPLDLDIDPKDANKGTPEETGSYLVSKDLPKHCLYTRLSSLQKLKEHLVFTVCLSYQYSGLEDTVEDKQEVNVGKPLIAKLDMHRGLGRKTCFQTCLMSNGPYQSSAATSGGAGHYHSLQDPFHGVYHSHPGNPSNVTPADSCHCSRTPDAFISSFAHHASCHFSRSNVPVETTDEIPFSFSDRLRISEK
Text: The term is quite general, regardless of whether a test-compound enhances or diminishes the biological parameter in question. Its equation is a modified version of the IC50 equation, taking the ratio of the response (R) to the maximum response (Rmax): {R/Rmax} = {1/ [1+(E50/I)n]}. […] However, some test-compounds achieve only partial attenuation of a biological activity, even at high concentrations. In this case, IC50 values may be misleading about potency.
Cell lines were in log phase of growth, harvested and seeded in a 96-well plate at optimum plating density. Next, cells were incubated with and without test-compounds (0.1 µM - 1 µM - 10 µM) in the presence of positive, negative and untreated controls.

[2] = test system: patient-derived glioblastoma cells (U3024); assay: Spheroid disintegration in patient-derived glioblastoma cells over-expressing MALT1; assay type: cell-based, human; conditions: 10 µM; U3024 spheroids compared to untreated spheroids
Text: (§1) To measure the MALT1-dependent antiproliferative effect of sitagliptin on GMB cell growth and at the same time account for biases, U3024, an established and characterized GBM cell line derived from GBM patient surgical samples was chosen (https://www.hgcc.se/). U3024 is of mesenchymal subtype (person) and is characterized by MALT1 overexpression. Cell lines were maintained in serum-free neural stem cell media to retain tumour-initiating capacity as well as tumour specific phenotypes (Pollard et al, 2009). The U87MG glioma cell line served as a bona fide human glioblastoma cell line. Cell cultures were performed in 3D. […] Cell lines were in log phase of growth, harvested and seeded in a 96-well plate at optimum plating density. […] DMSO was <0.05%.

[3] = test system: Glioblastoma multiforme (GBM) cell growth (U3024, U87MG); assay: Antiproliferative effect on GBM cell growth, 3D cell cultures; assay type: cell-based, human; conditions: tested at 0.1 µM, 1 µM, and 10 µM at t=48h, 3D cultures
Text: as §1, with “<0.05%. […] The results are mean ± standard deviation of three independent experiments done in triplicates. […] Three independent experiments were performed in triplicates.” for “<0.05%.”

[4] = molecular target: T2, CYP2B6 (Homo sapiens, UniProt P20813); assay: CYP450 inhibition/induction, baculosomes, fluorescent substrate, kinetic model; assay type: in vitro ADME; conditions: 1 µM; 20°C; t = 60 min
T2 construct: purchased Thermo Fisher Scientific (Waltham, MA, USA); host or cells: baculosomes
T2 sequence (P20813 1-491): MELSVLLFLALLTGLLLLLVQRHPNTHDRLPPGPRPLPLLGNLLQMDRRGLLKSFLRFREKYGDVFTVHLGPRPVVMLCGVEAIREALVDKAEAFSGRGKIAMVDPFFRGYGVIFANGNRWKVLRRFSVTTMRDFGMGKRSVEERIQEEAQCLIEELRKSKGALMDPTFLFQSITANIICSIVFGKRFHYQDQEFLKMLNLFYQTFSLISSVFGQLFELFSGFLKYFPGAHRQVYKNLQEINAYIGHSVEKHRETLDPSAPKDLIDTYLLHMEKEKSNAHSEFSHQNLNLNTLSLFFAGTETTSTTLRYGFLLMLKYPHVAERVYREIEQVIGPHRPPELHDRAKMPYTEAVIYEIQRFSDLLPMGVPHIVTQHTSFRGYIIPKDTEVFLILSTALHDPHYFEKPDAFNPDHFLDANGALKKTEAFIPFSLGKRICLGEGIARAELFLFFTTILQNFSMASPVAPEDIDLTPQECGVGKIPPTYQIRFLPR
Experimental: (§2) To determine the isozyme-specific CYP450-metabolism, baculosomes® expressing CYP1A2, CYP2A6, CYP2B6, CYP2C9, CYP2C19, CYP2D6 and CYP3A4 human CYP450 isoenzymes were purchased from Thermo Fisher Scientific (Waltham, MA, USA). All reagents were handled and prepared according to the manufacturer's protocol. Sitagliptin was tested at 1 µM. Enzymatic activity in the presence of sitagliptin was assessed based on the kinetic model for CYP1A2, CYP2A6, CYP2B6, CYP2C9, CYP2C19, CYP2D6 and CYP3A4 isoforms. Reactions took place in triplicates at 20°C. Glucose-6-phosphate at 333 mM and glucose-6-phosphate-dehydrogenase at 30 U/mL in 100 mM potassium phosphate, pH 8.0 (regeneration system) converted NADP+ (10 mM in 100 mM potassium phosphate, pH 8.0) into NADPH to initiate the CYP450 reaction. Upon the addition of the fluorescent substrate, immediately (<2 min), the fluorescence signal was monitored over time at suitable excitation and emission wavelengths by Lionheart FX (BioTek, Winooski, VT, USA). CYP450 inhibition (%) was determined based on the reaction rates (fluorescence intensity changes per unit time).

[5] = molecular target: CYP1A2 (Homo sapiens, UniProt P05177); assay: as above; assay type: in vitro ADME; conditions: 1 µM; 20°C; t = 60 min
Experimental: as §2

[6] = molecular target: T3, CYP2A6 (Homo sapiens, UniProt P11509); assay: as above; assay type: in vitro ADME; conditions: 1 µM; 20°C; t = 60 min
T3 construct: purchased Thermo Fisher Scientific (Waltham, MA, USA); host or cells: baculosomes
T3 sequence (P11509 1-494): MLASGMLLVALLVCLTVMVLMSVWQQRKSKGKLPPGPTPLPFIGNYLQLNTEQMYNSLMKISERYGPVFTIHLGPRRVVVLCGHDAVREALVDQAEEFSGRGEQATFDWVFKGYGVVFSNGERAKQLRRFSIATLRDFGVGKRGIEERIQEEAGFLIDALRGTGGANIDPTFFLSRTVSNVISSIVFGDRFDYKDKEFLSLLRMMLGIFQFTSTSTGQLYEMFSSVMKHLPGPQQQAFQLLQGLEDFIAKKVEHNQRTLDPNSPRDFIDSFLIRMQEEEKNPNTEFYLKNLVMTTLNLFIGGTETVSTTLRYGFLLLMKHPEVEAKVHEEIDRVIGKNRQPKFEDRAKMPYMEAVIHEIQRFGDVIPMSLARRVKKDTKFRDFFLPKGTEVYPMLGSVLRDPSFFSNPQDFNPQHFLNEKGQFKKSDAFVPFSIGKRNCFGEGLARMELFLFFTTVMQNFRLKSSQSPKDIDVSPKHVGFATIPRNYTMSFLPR
Experimental: as §2

[7] = molecular target: T4, CYP2C9 (Homo sapiens, UniProt P11712); assay: as above; assay type: in vitro ADME; conditions: 1 µM; 20°C; t = 60 min
T4 construct: purchased Thermo Fisher Scientific (Waltham, MA, USA); host or cells: baculosomes
Experimental: as §2

[8] = molecular target: T5, CYP2C19 (Homo sapiens, UniProt P33261); assay: as above; assay type: in vitro ADME; conditions: 1 µM; 20°C; t = 60 min
T5 construct: purchased Thermo Fisher Scientific (Waltham, MA, USA); host or cells: baculosomes
Experimental: as §2

[9] = molecular target: T6, CYP3A4 (Homo sapiens, UniProt P08684); assay: as above; assay type: in vitro ADME; conditions: 1 µM; 20°C; t = 60 min
T6 construct: purchased Thermo Fisher Scientific (Waltham, MA, USA); host or cells: baculosomes
Experimental: as §2

[10] = molecular target: T7, CYP2D6 (Homo sapiens, UniProt P10635); assay: as above; assay type: in vitro ADME; conditions: 1 µM; 20°C; t = 60 min
T7 construct: purchased Thermo Fisher Scientific (Waltham, MA, USA); host or cells: baculosomes
Experimental: as §2

[11] = molecular target: T8, recombinant full-length human MALT1 (Homo sapiens, UniProt Q9UDY8); assay: Fluorogenic MALT1 proteolytic activity assay with Ac-LRSR-AMC substrate; assay type: biochemical; conditions: read-out: percent inhibition of MALT1 proteolytic activity
T8 construct: recombinant full-length human MALT1
T8 sequence (Q9UDY8 1-824): T1 sequence (Q9UDY8 1-824)
Experimental: Fluorogenic reactions were monitored in the presence of recombinant full-length human MALT1 and Ac-LRSR-AMC (Ac-Leu-Arg-Ser-Arg-7-amino-4-methylcoumarin) - SEQ ID NO:1 - with excitation/emission wavelengths of 360/460 nm in black, low binding microtiter plates using a microplate reader. Cleavage of the Ac-LRSR-AMC substrate by MALT1 results in the release of AMC and a fluorescent signal. […] The final percent inhibition was calculated with the formula: {[fluorescence_test compound(T2-T1) - fluorescence_negative control (T2-T1)]/ [fluorescence_positive control (T2-T1) - fluorescence_negative control (T2-T1)]} × 100. […] A so-called buffer only test-condition (i.e. MALT1+Ac-LRSR-AMC substrate+buffer) served as negative control. […] MI-2 (C19H17Cl3N4O3; 2-chloro-N-[4-[5-(3,4-dichlorophenyl)-3-(2-methoxyethoxy)-1,2,4-triazol-1-yl] phenyl] acetamide) is an orthosteric and irreversible MALT1 inhibitor (Fontán et al, 2012).

T4 sequence (P11712 whole entry): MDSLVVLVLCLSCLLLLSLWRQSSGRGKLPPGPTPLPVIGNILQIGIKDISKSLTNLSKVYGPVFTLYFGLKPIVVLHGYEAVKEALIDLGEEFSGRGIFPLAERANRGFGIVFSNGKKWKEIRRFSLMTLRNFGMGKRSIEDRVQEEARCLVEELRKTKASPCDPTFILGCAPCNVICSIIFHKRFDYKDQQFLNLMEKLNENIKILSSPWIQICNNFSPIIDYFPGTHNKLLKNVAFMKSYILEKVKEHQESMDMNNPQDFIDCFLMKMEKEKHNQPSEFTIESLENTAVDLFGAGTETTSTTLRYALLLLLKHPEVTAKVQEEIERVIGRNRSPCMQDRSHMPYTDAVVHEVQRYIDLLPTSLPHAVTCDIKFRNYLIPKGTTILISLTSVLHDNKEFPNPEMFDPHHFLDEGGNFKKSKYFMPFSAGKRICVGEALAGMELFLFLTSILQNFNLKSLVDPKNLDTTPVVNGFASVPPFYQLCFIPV
CYP1A2, sequence (P05177 whole entry): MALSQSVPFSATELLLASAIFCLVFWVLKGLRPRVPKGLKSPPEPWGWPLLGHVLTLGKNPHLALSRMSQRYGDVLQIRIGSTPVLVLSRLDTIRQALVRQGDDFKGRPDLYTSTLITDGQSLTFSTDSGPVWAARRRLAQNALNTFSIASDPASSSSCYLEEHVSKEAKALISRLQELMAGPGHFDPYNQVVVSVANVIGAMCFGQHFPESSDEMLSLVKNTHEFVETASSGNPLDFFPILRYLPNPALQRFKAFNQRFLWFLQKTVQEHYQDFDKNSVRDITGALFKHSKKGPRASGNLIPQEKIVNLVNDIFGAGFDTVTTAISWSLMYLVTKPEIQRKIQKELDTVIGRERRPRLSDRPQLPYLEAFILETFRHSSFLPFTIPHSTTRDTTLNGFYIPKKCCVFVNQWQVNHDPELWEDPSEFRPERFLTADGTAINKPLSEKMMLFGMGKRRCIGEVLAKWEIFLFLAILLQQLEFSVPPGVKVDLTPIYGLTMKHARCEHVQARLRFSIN
T5 sequence (P33261 whole entry): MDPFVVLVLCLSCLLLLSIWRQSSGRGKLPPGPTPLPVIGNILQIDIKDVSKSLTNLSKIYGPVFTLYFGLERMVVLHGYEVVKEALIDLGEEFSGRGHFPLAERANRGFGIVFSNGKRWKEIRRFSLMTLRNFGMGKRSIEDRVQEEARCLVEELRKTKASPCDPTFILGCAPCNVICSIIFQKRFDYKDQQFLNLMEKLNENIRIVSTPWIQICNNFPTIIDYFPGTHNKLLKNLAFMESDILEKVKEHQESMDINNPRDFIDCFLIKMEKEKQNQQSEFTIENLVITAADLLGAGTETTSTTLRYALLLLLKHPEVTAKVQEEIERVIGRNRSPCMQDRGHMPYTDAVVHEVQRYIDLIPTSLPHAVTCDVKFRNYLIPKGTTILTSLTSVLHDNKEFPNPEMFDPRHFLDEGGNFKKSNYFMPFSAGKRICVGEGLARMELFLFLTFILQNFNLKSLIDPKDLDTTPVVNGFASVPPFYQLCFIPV
T6 sequence (P08684 whole entry): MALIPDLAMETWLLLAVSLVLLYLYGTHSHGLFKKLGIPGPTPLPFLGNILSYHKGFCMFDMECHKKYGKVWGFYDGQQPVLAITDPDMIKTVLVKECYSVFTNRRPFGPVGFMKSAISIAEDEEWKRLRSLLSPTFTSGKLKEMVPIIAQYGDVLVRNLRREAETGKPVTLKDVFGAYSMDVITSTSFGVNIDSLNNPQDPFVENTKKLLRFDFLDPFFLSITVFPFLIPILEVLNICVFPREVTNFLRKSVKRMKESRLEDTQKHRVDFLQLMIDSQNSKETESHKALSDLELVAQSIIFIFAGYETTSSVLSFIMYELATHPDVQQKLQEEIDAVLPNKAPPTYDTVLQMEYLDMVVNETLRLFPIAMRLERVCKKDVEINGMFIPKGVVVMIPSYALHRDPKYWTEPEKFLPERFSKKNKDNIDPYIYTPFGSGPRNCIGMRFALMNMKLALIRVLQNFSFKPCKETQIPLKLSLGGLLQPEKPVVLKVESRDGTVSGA
T7 sequence (P10635 whole entry): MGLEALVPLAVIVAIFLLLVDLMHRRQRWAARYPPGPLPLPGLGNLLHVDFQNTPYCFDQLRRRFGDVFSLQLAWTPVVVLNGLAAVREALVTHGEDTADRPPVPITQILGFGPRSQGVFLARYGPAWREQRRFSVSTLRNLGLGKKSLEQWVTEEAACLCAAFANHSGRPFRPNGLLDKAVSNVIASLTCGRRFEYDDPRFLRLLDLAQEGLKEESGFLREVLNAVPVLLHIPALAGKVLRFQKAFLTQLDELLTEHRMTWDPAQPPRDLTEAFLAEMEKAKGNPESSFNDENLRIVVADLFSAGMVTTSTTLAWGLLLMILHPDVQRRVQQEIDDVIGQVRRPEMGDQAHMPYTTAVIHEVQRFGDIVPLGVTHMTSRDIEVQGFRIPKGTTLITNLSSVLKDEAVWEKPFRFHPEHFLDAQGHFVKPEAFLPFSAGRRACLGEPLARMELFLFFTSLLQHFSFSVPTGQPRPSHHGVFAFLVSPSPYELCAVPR

| EC50 ([1]; 0.1 µM - 1 µM - 10 µM, Trypan blue dye-exclusion at t=48h, mean of three independent experiments in triplicates, read-out: EC50 values) [nM] | CYP2B6 inhibition / induction [4] | CYP1A2 inhibition / induction [5] | CYP2A6 inhibition / induction [6] | CYP2C9 inhibition / induction [7] | CYP2C19 inhibition / induction [8] | CYP3A4 inhibition / induction [9] | CYP2D6 inhibition / induction [10] | inhibition at 10 µM [11] [%] | SMILES | EC50 [1] [nM] | inhibition of MALT1 resulting in spheroid disintegration [2] | antiproliferative effect on GBM cell growth [3] |
| --- | --- | --- | --- | --- | --- | --- | --- | --- | --- | --- | --- | --- |
| – | – | – | – | – | – | – | – | – | COCCOc1nc(-c2ccc(Cl)c(Cl)c2)n(-c2ccc(NC(=O)CCl)cc2)n1 [MI-2, 2-chloro-N-[4-[5-(3,4-dichlorophenyl)-3-(2-methoxyethoxy)-1,2,4-triazol-1-yl]phenyl] acetamide] | 1000 | – | – |
| 1300 | does not inhibit nor induces | does not inhibit nor induces | does not inhibit nor induces | does not inhibit nor induces | does not inhibit nor induces | does not inhibit nor induces | does not inhibit nor induces | ≥ 40 | N[C@@H](CC(=O)N1CCn2c(nnc2C(F)(F)F)C1)Cc1cc(F)c(F)cc1F [Sitagliptin, (3R)-3-amino-1-[3-(trifluoromethyl)-6,8-dihydro-5H-[1,2,4]triazolo[4,3-a]pyrazin-7-yl]-4-(2,4,5-trifluorophenyl)butan-1-one] | – | spheroid disintegration | strong antiproliferative effect |
